Test results reported in ChEMBL document CHEMBL1201862, “PubChem BioAssay data set” (2004).
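All cell lines were grown in 96-well plates and treated with compound for 48 hours. GI50 is the concentration that inhibits growth by half.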 Calls of active or inactive are those of the source. Rule as the data show it: active = GI50 up to about 1.1 µM and inactive = higher.

Legend:
Assay in all cases: NCI anticancer screen, dose series, 48 h
[1] = system: HOP-62
[2] = system: NCI-H522
[3] = system: SK-OV-3
[4] = system: SN12C
[5] = system: MCF7
[6] = system: RXF 393
[7] = system: 786-0
[8] = system: SK-MEL-28
[9] = system: A549
[10] = system: NCI/ADR-RES
[11] = system: LOX IMVI
[12] = system: HT-29
[13] = system: OVCAR-5
[14] = system: CCRF-CEM
[15] = system: HOP-92
[16] = system: SR
[17] = system: HCT-116
[18] = system: OVCAR-4
[19] = system: RPMI-8226
[20] = system: SF-539

Row | SMILES | GI50 [1] | GI50 [2] | GI50 [3] | GI50 [4] | GI50 [5] | GI50 [6] | GI50 [7] | GI50 [8] | GI50 [9] | GI50 [10] | GI50 [11] | GI50 [12] | GI50 [13] | GI50 [14] | GI50 [15] | GI50 [16] | GI50 [17] | GI50 [18] | GI50 [19] | GI50 [20]
1 | CNC1=C(C)C(=O)C(O)=C([C@H](C)CCC=C(C)C)C1=O | 12.8 µM (inactive) | 3.77 µM (inactive) | 23.9 µM (inactive) | 22.8 µM (inactive) | 37.2 µM (inactive) | 30.7 µM (inactive) | 24.9 µM (inactive) | 31.4 µM (inactive) | 20.3 µM (inactive) | 5.21 µM (inactive) | 14.7 µM (inactive) | 36.6 µM (inactive) | 77.8 µM (inactive) | 3.95 µM (inactive) | 33.1 µM (inactive) | 7.38 µM (inactive) | 33.9 µM (inactive) | 11.7 µM (inactive) | 2.94 µM (inactive) | –
2 | Nc1ccc(S(=O)(=O)Nc2cnc3c(Cl)cccc3n2)cc1 [CHLORSULFAQUINOXALINE] | 78.9 µM (inactive) | 29 µM (inactive) | > 33 µM (inactive) | 94.4 µM (inactive) | 101 µM (inactive) | 82.2 µM (inactive) | 86.3 µM (inactive) | 151 µM (inactive) | 117 µM (inactive) | 47.5 µM (inactive) | 84.9 µM (inactive) | 248 µM (inactive) | 192 µM (inactive) | 52.6 µM (inactive) | 71.3 µM (inactive) | 56.4 µM (inactive) | 7.28 µM (inactive) | 125 µM (inactive) | 129 µM (inactive) | 126 µM (inactive)
3 | O=C(O)c1ccc(Oc2nc3ccccc3s2)cc1 | > 100 µM (inactive) | > 100 µM (inactive) | > 100 µM (inactive) | > 100 µM (inactive) | > 100 µM (inactive) | > 100 µM (inactive) | > 100 µM (inactive) | > 100 µM (inactive) | > 100 µM (inactive) | > 100 µM (inactive) | > 100 µM (inactive) | > 100 µM (inactive) | > 100 µM (inactive) | > 100 µM (inactive) | 87.9 µM (inactive) | 85.7 µM (inactive) | > 100 µM (inactive) | > 100 µM (inactive) | 74 µM (inactive) | > 100 µM (inactive)
4 | CC1=C(C(=O)OC2CC3CCC2(C)C3(C)C)C2Nc3ccccc3N(C)C2O1 (configuration not stated) | 3.84 µM (inactive) | 1.93 µM (inactive) | 4.43 µM (inactive) | 1.78 µM (inactive) | 2.36 µM (inactive) | 2.63 µM (inactive) | 2.51 µM (inactive) | 5.02 µM (inactive) | 2.05 µM (inactive) | 2.99 µM (inactive) | 1.71 µM (inactive) | 1.56 µM (inactive) | 7.1 µM (inactive) | 2.04 µM (inactive) | 3.22 µM (inactive) | 1.19 µM (inactive) | 2.79 µM (inactive) | 1.67 µM (inactive) | 2.17 µM (inactive) | 3.04 µM (inactive)
5 | CCOC(=O)/C(=C\c1c[nH]c2ccccc12)P(=O)(OCC)OCC | 42.6 µM (inactive) | 26.8 µM (inactive) | 30.5 µM (inactive) | 30.5 µM (inactive) | 50.8 µM (inactive) | 33.6 µM (inactive) | 31.3 µM (inactive) | 36.8 µM (inactive) | 40.5 µM (inactive) | 25.3 µM (inactive) | 20.6 µM (inactive) | 28.4 µM (inactive) | 26.2 µM (inactive) | 16.7 µM (inactive) | 29.2 µM (inactive) | 25.1 µM (inactive) | 32.9 µM (inactive) | 23.9 µM (inactive) | 33.5 µM (inactive) | 21.9 µM (inactive)
6 | COC(=O)/C=C1\C(=O)C=C2[C@@H]3C[C@H]4C[C@H](CC[C@@]4(C)N21)C3(C)NC(C)=O (some centres not stated) | 20.7 µM (inactive) | 1.42 µM (inactive) | 24.2 µM (inactive) | 11.7 µM (inactive) | 7.18 µM (inactive) | 4.51 µM (inactive) | 3.51 µM (inactive) | 3.12 µM (inactive) | 23.6 µM (inactive) | 26.5 µM (inactive) | 17 µM (inactive) | 8.02 µM (inactive) | 18.1 µM (inactive) | 4.4 µM (inactive) | 18 µM (inactive) | 18.8 µM (inactive) | 8.97 µM (inactive) | 17.6 µM (inactive) | 4.06 µM (inactive) | 3.33 µM (inactive)
7 | Oc1ccc(Cl)cc1Cc1cc(Cl)cc(Cc2cc(Cl)ccc2O)c1O | 2.5 µM (inactive) | 0.766 µM (active) | 2.43 µM (inactive) | 2.4 µM (inactive) | 2.21 µM (inactive) | 1.84 µM (inactive) | 2.81 µM (inactive) | 3.24 µM (inactive) | 2.83 µM (inactive) | 2.04 µM (inactive) | 2.9 µM (inactive) | 3 µM (inactive) | 3.17 µM (inactive) | 1.47 µM (inactive) | 1.26 µM (inactive) | 2.82 µM (inactive) | 2.28 µM (inactive) | 2.83 µM (inactive) | 0.91 µM (active) | 1.64 µM (inactive)
8 | O=C1C=C(NCCc2cc(Br)c(O)c(Br)c2)C(=O)c2[nH]cnc21 | 38.6 µM (inactive) | 21.2 µM (inactive) | 41.2 µM (inactive) | 26.2 µM (inactive) | 22.9 µM (inactive) | 19.5 µM (inactive) | > 100 µM (inactive) | 39.7 µM (inactive) | 32 µM (inactive) | > 100 µM (inactive) | 21.5 µM (inactive) | 26.9 µM (inactive) | 29.9 µM (inactive) | 2.28 µM (inactive) | 29.7 µM (inactive) | 32.4 µM (inactive) | 7.35 µM (inactive) | 19.1 µM (inactive) | > 10 µM (inactive) | 22.4 µM (inactive)
9 | COC1=CC(=O)c2c(c(COP(=O)(N(C)CCBr)N(C)CCBr)cn2C)C1=O | < 0.0203 µM (active) | 0.138 µM (active) | 0.121 µM (active) | < 0.01 µM (active) | < 0.01 µM (active) | 0.0574 µM (active) | < 0.0103 µM (active) | 0.141 µM (active) | < 0.01 µM (active) | 0.134 µM (active) | 0.194 µM (active) | < 0.0219 µM (active) | 0.148 µM (active) | < 0.0158 µM (active) | 0.107 µM (active) | < 0.01 µM (active) | < 0.01 µM (active) | 1.33 µM (inactive) | 0.0323 µM (active) | < 0.0114 µM (active)
10 | O=[N+]([O-])c1ccc(CSc2c3ccccc3nc3ccccc23)cc1 | 18.3 µM (inactive) | 1.9 µM (inactive) | 22 µM (inactive) | 3.52 µM (inactive) | 2.51 µM (inactive) | 5.47 µM (inactive) | 1.93 µM (inactive) | 4.67 µM (inactive) | 23.9 µM (inactive) | 18 µM (inactive) | 2.93 µM (inactive) | 2.28 µM (inactive) | 15.3 µM (inactive) | 2.69 µM (inactive) | 3.75 µM (inactive) | 3.13 µM (inactive) | 2.78 µM (inactive) | 15.6 µM (inactive) | 2.85 µM (inactive) | 2.47 µM (inactive)
11 | O=C(O)Cc1ccc(Oc2nc3ccccc3nc2-c2cccs2)cc1 | > 100 µM (inactive) | 65.2 µM (inactive) | > 100 µM (inactive) | 84.9 µM (inactive) | 38.5 µM (inactive) | 17.4 µM (inactive) | 80 µM (inactive) | 60.4 µM (inactive) | 46.7 µM (inactive) | 60.5 µM (inactive) | 40.6 µM (inactive) | 42.6 µM (inactive) | 62.7 µM (inactive) | 49.3 µM (inactive) | 34.3 µM (inactive) | 38.8 µM (inactive) | 54.6 µM (inactive) | 51.1 µM (inactive) | 33.1 µM (inactive) | 79.4 µM (inactive)
12 | CC(C)OP(=O)(OC(C)C)/C(C#N)=C/c1c[nH]c2ccccc12 | > 100 µM (inactive) | > 100 µM (inactive) | 92 µM (inactive) | > 100 µM (inactive) | 28.7 µM (inactive) | > 100 µM (inactive) | > 100 µM (inactive) | > 100 µM (inactive) | > 100 µM (inactive) | 21.7 µM (inactive) | > 100 µM (inactive) | > 100 µM (inactive) | > 100 µM (inactive) | 35.6 µM (inactive) | 36.8 µM (inactive) | 68.1 µM (inactive) | > 100 µM (inactive) | 86.5 µM (inactive) | > 100 µM (inactive) | > 100 µM (inactive)
13 | COc1ccc(-c2cc(-c3ccncc3)nc(N)c2-c2ccc(F)cc2)cc1 | 45.4 µM (inactive) | 11.1 µM (inactive) | 95.9 µM (inactive) | – | 24.3 µM (inactive) | 15 µM (inactive) | 9.29 µM (inactive) | – | > 100 µM (inactive) | 24.9 µM (inactive) | 22.8 µM (inactive) | 11.7 µM (inactive) | > 100 µM (inactive) | > 100 µM (inactive) | 83.4 µM (inactive) | 4.19 µM (inactive) | 11.9 µM (inactive) | 26.7 µM (inactive) | > 100 µM (inactive) | 19.4 µM (inactive)
